Test results reported in PMC7308271, “Discovery of a new class of orthosteric antagonists with nanomolar potency at extrasynaptic GABAA receptors” (Scientific Reports, 2020).
Like-named read-outs stand apart in the source and are kept apart here.

Experiments:
[1] = target: T1, human α3β2γ2 GABAΑ receptor (Homo sapiens, UniProt P34903+P47870); test: FMP assay at α3β2γ2 GABAA receptors in HEK cells; type: cell-based
T1 construct: expressed in transfected cells; host or cells: HEK background (HEK293 Flp-In stably expressing NPBWR2), transient α:β:γ 1:1:2
T1 sequence (P34903 29-492): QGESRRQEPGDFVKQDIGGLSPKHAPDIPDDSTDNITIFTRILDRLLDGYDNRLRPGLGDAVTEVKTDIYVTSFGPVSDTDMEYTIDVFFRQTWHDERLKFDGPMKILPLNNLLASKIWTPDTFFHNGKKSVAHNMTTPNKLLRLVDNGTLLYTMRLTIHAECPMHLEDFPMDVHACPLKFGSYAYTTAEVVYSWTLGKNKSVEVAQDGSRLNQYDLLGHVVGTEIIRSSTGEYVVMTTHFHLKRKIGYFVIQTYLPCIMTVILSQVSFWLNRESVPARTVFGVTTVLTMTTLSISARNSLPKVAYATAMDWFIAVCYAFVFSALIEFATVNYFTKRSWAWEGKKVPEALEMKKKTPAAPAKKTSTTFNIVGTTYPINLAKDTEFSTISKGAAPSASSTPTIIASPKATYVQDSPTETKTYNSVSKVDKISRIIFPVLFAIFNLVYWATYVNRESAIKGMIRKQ
T1 sequence (P47870 25-512 limits assumed): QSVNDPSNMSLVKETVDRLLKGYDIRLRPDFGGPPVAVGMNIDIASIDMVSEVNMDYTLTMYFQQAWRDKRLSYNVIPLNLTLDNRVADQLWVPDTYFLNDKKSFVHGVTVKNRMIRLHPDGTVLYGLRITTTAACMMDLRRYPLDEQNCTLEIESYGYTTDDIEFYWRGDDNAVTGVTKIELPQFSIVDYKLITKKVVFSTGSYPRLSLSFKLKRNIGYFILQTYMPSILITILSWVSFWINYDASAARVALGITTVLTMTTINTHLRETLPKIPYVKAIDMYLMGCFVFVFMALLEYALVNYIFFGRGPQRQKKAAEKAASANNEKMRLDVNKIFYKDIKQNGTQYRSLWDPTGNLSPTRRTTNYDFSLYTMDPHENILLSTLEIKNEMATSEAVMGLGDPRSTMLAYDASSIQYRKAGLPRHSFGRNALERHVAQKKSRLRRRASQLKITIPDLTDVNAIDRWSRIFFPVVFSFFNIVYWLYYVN
T1 sequence (P18507 40-475 partner): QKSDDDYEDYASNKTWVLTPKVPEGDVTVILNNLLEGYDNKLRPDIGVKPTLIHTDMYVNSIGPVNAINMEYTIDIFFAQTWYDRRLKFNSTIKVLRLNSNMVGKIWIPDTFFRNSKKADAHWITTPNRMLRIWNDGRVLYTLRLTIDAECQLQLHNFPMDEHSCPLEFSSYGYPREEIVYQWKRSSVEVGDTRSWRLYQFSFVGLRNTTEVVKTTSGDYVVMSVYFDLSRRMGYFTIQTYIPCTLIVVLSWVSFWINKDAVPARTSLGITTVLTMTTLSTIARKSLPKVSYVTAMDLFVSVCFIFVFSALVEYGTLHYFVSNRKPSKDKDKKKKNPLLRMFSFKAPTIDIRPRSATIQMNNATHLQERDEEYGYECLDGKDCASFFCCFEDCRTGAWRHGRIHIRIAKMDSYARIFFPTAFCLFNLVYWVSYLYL
Method: (§1) HEK293 cells were maintained in DMEM containing GlutaMAX-I, supplemented with 10% FBS and 1% penicillin-streptomycin and incubated at 37 °C and a humidity of 5% CO2. For expression of δ-containing GABAΑ receptors, a HEK293 Flp-In^ΤΜ cell line stably expressing the human GABAΑ δ-subunits (referred to as δ-HEK) was used and the γ-containing subtypes was expressed in a background HEK293 Flp-In^ΤΜ cell line stably expressing the G-protein coupled peptide receptor NPBWR2 (referred to as HEK background)[26], both positively selected for using 200 μg/mL hygromycin B. α1β2γ2 receptors were stably expressed in a HEK293 cell line maintained as above but with no selection (gift from Marianne L. Jensen, Neurosearch).
(§2) To express recombinant GABAΑ receptors human α1, α2, α3, α5, α6, β2, γ2 (pcDNA3.1/Zeo) and α4, β1 (pUNIV)[26] subunit cDNA were transiently transfected into either δ-HEK or HEK background cells. δ-HEK cells were transfected with α- and β-subunits in a 1:1 ration whereas HEK background cells were transfected with α-, β- and γ-subunits in a 1:1:2 ratio. Human BGT1 (pcDNA5/FRT)[43] was transiently transfected into the δ-HEK cell line. δ-HEK cells transfected for whole-cell patch-clamp recordings were co-transfected with green fluorescent protein (GFP) as well as α- and β-subunits in a 0.5:1:1 ratio (0.8 μg + 1.6 μg + 1.6 μg in a 6 cm dish) in order to identify transfected cells. The transfection was carried out using Polyfect as transfection reagent according to the manufactures protocol expect for using half the recommended volume of Polyfect.
(§3) The FMP assay was performed as previously described with a few modifications. […] Data was obtained as changes in fluorescence units (∆RFU) by measuring emission at 560 nm caused by excitation at 530 nm. […]
(§4) Data obtained in the FMP assay are given as relative changes in fluorescence units (ΔRFU) by subtracting the average of the baseline fluorescence signal from the peak fluorescence signal after compound addition. […]

[2] = target: T2, human α2β2γ2 GABAΑ receptor (Homo sapiens, UniProt P47869+P47870); test: FMP assay at α2β2γ2 GABAA receptors in HEK cells; type: cell-based
T2 construct: expressed in transfected cells; host or cells: HEK background (HEK293 Flp-In stably expressing NPBWR2), transient α:β:γ 1:1:2
T2 sequence (P47869 29-451): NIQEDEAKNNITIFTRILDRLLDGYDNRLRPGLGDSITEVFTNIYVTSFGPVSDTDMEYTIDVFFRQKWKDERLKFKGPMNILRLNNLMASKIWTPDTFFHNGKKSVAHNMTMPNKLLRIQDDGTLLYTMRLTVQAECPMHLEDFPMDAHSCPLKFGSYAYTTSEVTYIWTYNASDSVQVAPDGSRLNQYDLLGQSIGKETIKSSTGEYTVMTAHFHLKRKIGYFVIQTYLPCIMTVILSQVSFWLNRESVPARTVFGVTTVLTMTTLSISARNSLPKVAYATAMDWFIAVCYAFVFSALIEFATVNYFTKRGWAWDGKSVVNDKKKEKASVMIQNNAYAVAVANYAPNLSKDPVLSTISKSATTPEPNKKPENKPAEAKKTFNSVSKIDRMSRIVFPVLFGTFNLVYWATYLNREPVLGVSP
T2 sequence (P47870 25-512 limits assumed): as the sequence (P47870 25-512 limits assumed) above
T2 sequence (P18507 40-475 partner): as the sequence (P18507 40-475 partner) above
Method: as §1, §2, §3, §4

[3] = target: [^3H]muscimol binding (GABAΑ receptors) in rat brain cortical homogenate; test: [3H]muscimol radioligand binding in rat cortical homogenate; conditions: for Ki: 5 nM [^3H]muscimol, n = 4; for pKi ± SEM: [^3H]muscimol
Method: The binding studies were performed using rat brain homogenate prepared from the cortex of adult Sprague-Dawley male rats (250–350 g) obtained from commercial breeders (Janvier Laboratories, Le Genest-Saint-Isle, France), housed and cared for according to the Danish legislation regulating animal experiments and the European Communities Council Directive (2010/63/EU). Homogenate preparation was performed as described earlier. On the day of assay, membranes stored at −20 °C was quickly thawed followed by addition of 40 volumes of ice-cold binding buffer (50 mM TRIS-HCl buffer; pH 7.4) and homogenization using and UltraTurrax homogenizer before being centrifuged at 48,000 ×g for 10 minutes at 4 °C. This washing procedure was repeated 4 times before the final pellet was suspended in the binding buffer to final concentration of approximately 0.5 mg/mL protein.
The radioligand binding assay was performed using [^3H]muscimol in a 96-well format. [^3H]muscimol (5 nM) was incubated with 75 μg/well protein with or without test compound or control at 0 °C for 1 hour in a total volume of 200 μL binding buffer in triplicates. […] After incubation, the binding reaction was terminated by rapid filtration through GF/C unifilters (PerkinElmer) with the use of a 96-well Packard FilterMate cell harvester (PerkinElmer), followed by 3 times washing in 250 μL ice-cold binding buffer. After drying at 65 °C, microscintillation fluid was added to the dried filters and the radioactivity bound to the filter was quantified in a Packard TopCounter microplate scintillation counter. The obtained binding data was converted into specific binding (% of control) for each data point and fitted to the one-site competition model by […] (GraphPad Prism, version 8.2.1). The fitted IC50 values were converted into Ki values by means of the Cheng-Prusoff equation[46]. Data are from three independent experiments, performed with three technical replicates and Ki values are given as pKi ± SEM.

[4] = system: MDR1 (P-glycoprotein); test: Bidirectional membrane permeability in MDR1-MDCK cells; type: in vitro ADME, canine; conditions: dog, both before and after
Method: (§5) Bidirectional permeability was tested for 018 and 2027 in the Madin-Darby canine kidney (MDCK) cell line expressing human multidrug resistance protein (MDR1, P-glycoprotein) (referred to as MDR1-MDCK cells) as described previously. To calculate efflux ratio the permeability in the basal-to-apical direction was divided by the permeability in the apical-to-basal direction. The obtained data is from triplicate measurements.

[5] = system: MDR1 (P-glycoprotein), human; test: as above; type: in vitro ADME, canine; conditions: dog, triplicate, read-out: basal to apical permeability
Method: as §5

[6] = read-out: pIC50 ± SEM (converted)

NCCCC(=O)O [GABA]
GABA EC80 ([1]; α3β2γ2, calculated from GABA potencies): 10 µM
GABA EC80 ([2]; α2β2γ2, calculated from GABA potencies): 10 µM

O=C(Nc1cccc(C(=O)N2CCC3(CCNCC3)CC2)c1)c1cccs1 [compound 018, N-(3-(3,9-diazaspiro[5.5]undecane-3-carbonyl)phenyl)thiophene-2-carboxamide]
Ki [3]: 0.02 µM
pKi ± SEM [3]: 7.71 ± 0.06
recovery [4]: > 85%
Papp B→A [5]: 7.9 nm/s
IC50 ([1]; read-out: IC50): 0.079 µM
IC50 [2, 6]: 0.324 µM

CC(=O)Nc1cccc(C(=O)N2CCC3(CCNCC3)CC2)c1 [compound 2027, N-(3-(3,9-diazaspiro[5.5]undecane-3-carbonyl)phenyl)acetamide]
Ki [3]: 0.56 µM
pKi ± SEM [3]: 6.25 ± 0.06
recovery [4]: > 85%
Papp B→A [5]: 6.7 nm/s
IC50 [1, 6]: 0.288 µM
IC50 ([2]; read-out: IC50): 2.96 µM
